Laboratory results reported in article PMC7801526, “Cryo-EM structure of Helicobacter pylori urease with an inhibitor in the active site at 2.0 Å resolution” (Nature Communications, 2021).

Legend:
[1] = biological target: T1, urease, catalytic subunit UreB (Helicobacter pylori, UniProt P69996); assay: cryo-EM structure at […] Å; phenol red assay on purified urease (IC50 […], Ki by Cheng-Prusoff); format: biochemical
T1 construct: with UreA

[2] = biological target: T1, urease, catalytic subunit UreB; assay: phenol red assay on purified urease (IC50 […], Ki by Cheng-Prusoff); format: biochemical

T1 sequence (P69996 whole entry): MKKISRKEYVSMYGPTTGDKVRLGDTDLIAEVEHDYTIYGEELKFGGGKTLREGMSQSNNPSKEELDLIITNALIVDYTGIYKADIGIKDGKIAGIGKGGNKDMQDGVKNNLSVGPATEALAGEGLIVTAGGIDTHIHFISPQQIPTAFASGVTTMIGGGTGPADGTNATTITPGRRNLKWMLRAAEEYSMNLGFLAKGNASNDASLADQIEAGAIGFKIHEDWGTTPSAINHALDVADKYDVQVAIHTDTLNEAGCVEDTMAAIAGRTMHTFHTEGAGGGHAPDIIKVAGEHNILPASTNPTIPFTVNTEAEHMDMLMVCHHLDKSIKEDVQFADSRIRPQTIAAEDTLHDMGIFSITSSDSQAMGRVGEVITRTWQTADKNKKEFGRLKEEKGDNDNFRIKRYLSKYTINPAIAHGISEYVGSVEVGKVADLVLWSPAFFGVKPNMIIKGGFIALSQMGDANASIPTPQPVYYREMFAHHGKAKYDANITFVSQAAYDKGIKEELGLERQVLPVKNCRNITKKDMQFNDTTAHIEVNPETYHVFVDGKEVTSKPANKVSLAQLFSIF
T1 sequence (P14916 whole entry, further chain): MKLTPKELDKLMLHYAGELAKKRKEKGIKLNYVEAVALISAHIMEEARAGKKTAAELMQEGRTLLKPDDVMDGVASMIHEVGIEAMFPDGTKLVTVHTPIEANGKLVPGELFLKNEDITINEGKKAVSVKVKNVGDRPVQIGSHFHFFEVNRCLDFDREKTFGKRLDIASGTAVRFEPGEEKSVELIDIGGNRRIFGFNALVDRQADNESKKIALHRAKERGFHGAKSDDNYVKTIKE

Compound OCCS [BME, β-mercaptoethanol] has a Ki [1] of 435 µM.
With Cc1cc(C)cc(-n2ccnc2SCC(=O)NO)c1 [SHA, 2-{[1-(3,5-dimethylphenyl)-1H-imidazol-2-yl]sulfanyl}-N-hydroxyacetamide] the Ki [2] was 0.63 µM.
